Data set [1] can be described thus: Kinetics of IChU reactions with reference electrophile (ind)2CH+ (stopped-flow photometry). In kind it is physicochemical. Conditions: E = −8.76, dichloromethane, 20 °C. The text has this:
(§1) In order to systematically investigate the influence of the chalcogen atom on the nucleophilicity of DHPB‐derived IChUs (Ch = O, S, Se, and Te), we utilized Mayr's benzhydrylium methodology.^[ [107] ^]
(§2) In accordance with observations in previous studies on ITU reactivity,^[ [119] ^] mixing the strongly colored benzhydrylium tetrafluoroborates 18 with excess IChUs in dichloromethane gave rise to decolorization of the solutions due to the formation of isochalcogenouronium tetrafluoroborates 19, which are colourless (Figure 3a). Owing to reversibility of the C─N bond formation, generated adducts 19 from the IChU/benzhydrylium reactions were not isolated but characterized by ^1H, ^13C, and ^77Se NMR spectroscopy (the ^77Se nucleus is remarkably sensitive with observed changes of around 100 ppm when comparing the ^77Se resonances of free ISeUs with those of the corresponding selenouronium tetrafluoroborates^[ [95] ^]). The kinetics of the IChU reactions with the reference electrophiles 18 were traced by photometric methods using standard stopped‐flow techniques. To establish pseudo first‐order conditions and to secure a sufficient decay of the benzhydrylium's absorbance during the course of the reactions, the IChUs were employed at higher concentrations than the benzhydrylium ions. First‐order rate constants k obs (s^−1) were determined by fitting the mono‐exponential decay function in Equation (2) to the decreasing absorbance (A) of 18 during their reaction with the IChUs as exemplified for the reaction of ITeU3 with (ind)2CH^+ in Figure 3b. (2) A=A0e^−kobst+C […]
(§3) First‐order rate constants k obs correlated linearly with the IChU concentration. Therefore, second‐order rate constants k 2 (L mol^−1 s^−1) were determined from the slope of the linear regression curves (Figure 3c ^[ [95] ^]). Second‐order rate constants k 2 for all kinetically investigated reactions of DHPB‐derived IChUs (Ch = O, S, Se, and Te) with benzhydrylium ions 18 are gathered in Table 1.
(§4) Apart from CH2Cl2 also MeCN and THF are solvents that are commonly employed in reactions involving isochalcogenoureas. […]

Data set [2] in a line: Kinetics of IChU reactions with reference electrophile (pyr)2CH+ (stopped-flow photometry). In kind it is physicochemical. Conditions: E = −7.69, dichloromethane, 20 °C.
From the text: as §1, §2, §3, §4

Data set [3] is described as follows: Kinetics of IChU reactions with reference electrophile (mpa)2CH+ (stopped-flow photometry). In kind it is physicochemical. Conditions: E = −5.89, dichloromethane, 20 °C.
From the text: as §1
In accordance with observations in previous studies on ITU reactivity,^[ [119] ^] mixing the strongly colored benzhydrylium tetrafluoroborates 18 with excess IChUs in dichloromethane gave rise to decolorization of the solutions due to the formation of isochalcogenouronium tetrafluoroborates 19, which are colourless (Figure 3a). […] To establish pseudo first‐order conditions and to secure a sufficient decay of the benzhydrylium's absorbance during the course of the reactions, the IChUs were employed at higher concentrations than the benzhydrylium ions. First‐order rate constants k obs (s^−1) were determined by fitting the mono‐exponential decay function in Equation (2) to the decreasing absorbance (A) of 18 during their reaction with the IChUs as exemplified for the reaction of ITeU3 with (ind)2CH^+ in Figure 3b. […]
First‐order rate constants k obs correlated linearly with the IChU concentration. Therefore, second‐order rate constants k 2 (L mol^−1 s^−1) were determined from the slope of the linear regression curves (Figure 3c ^[ [95] ^]). […]

For data set [4] the following is noted: in methanolic aqueous solution (1:5-mixture); cited from earlier work.
Data set [5] in a line: Mayr nucleophilicity parameters N and sN (benzhydrylium methodology, Mayr-Patz equation). In kind it is physicochemical. The note with it: dichloromethane, 20 °C.
From the text: (1) Mayr-Patz Equation: lgk20^∘C=sN(N+E)
The MPE is a linear‐free‐energy relationship that characterizes electrophiles by the electrophilicity parameter E and nucleophiles by the solvent‐dependent parameters N (nucleophilicity) and s N (sensitivity toward changes in the electrophile reactivity). By using the MPE (Equation (1)), the construction of comprehensive nucleophilicity and electrophilicity scales becomes possible, which facilitate the comparison of various classes of Lewis base organocatalysts.^[ [110], [111], [112], [113], [114], [115], [116], [117], [118], [119], [120] ^]
as §1
Figure 4 illustrates the linear correlations of the second‐order rate constants (lg k 2) with the electrophilicities E of Ar2CH^+ (18), which makes it possible to determine the Mayr nucleophilicity parameters N (and s N) for the DHPB‐derived IChUs IU3, ITU3, ISeU3, and ITeU3. […]
Figure 4 Linear correlations of second‐order rate constants (lg k 2) for the reactions of IU3, ITU3, ISeU3, and ITeU3 with Ar2CH^+ 18 (in dichloromethane at 20 °C) with the electrophilicities E of 18. The slopes of the linear correlations equal the nucleophile‐dependent sensitivity parameter s N. Intercepts on the abscissa reflect the nucleophilicity parameter N (N = –E at lg k 2 = 0).

A short description of data set [6]: Kinetics of IChU reactions with reference electrophile (dma)2CH+ (stopped-flow photometry). In kind it is physicochemical. Conditions: E = −7.02, dichloromethane, 20 °C.
From the text: as §1, §2, §3, §4

The nature of data set [7]: Lewis basicity LB from equilibrium constants (photometric titrations) with benzhydrylium ions as reference Lewis acids. The arrangement: key: Mayr Lewis basicity scale; LB from K and reference LA via Eq. (3). In kind it is physicochemical. Conditions: in dichloromethane, 20 °C. As to the method:
(a) Lewis basicity. Previously, the Mayr group established a series of benzhydrylium ions as C‐centered Lewis acid references to construct a Lewis basicity scale in dichloromethane. Substituting experimentally determined equilibrium constants K (at 20 °C) and reported Lewis acidities LA for the benzhydrylium ions (Figure 7) in Equation (3) enables one to calculate the Lewis basicity (LB) of a Lewis base.^[ [121], [127] ^] (3) lgK(20^∘C)=LA+LB
The reversibility of the formation of adducts 19 (Equation (4)), which was also apparent in the kinetics by significant positive intercepts in several of the k obs versus [IChU] plots (Supporting Information), provided the opportunity to probe the thermodynamics of the C‐N bond‐forming reactions of IChUs with benzhydrylium ions as the reference Lewis acids in more detail.^[ [95] ^] (4) IChU+Ar2CH^+(18)⇌Ar2CH-IChU^+(19)
By assuming the validity of the Beer–Lambert law for dilute solutions, equilibrium constants K (L mol^−1) were determined in photometric titrations according to Equation (5) from the initial absorbance (A 0) of the benzhydrylium ions 18 and the absorbance at equilibrium (A, Equation 5), that is, after addition of a certain amount of an IChU.^[ [109], [110], [111], [112], [113], [114], [115], [119] ^] (5) K=[19]/[18]IChU=A0−A/AIChU

Marks after values point to notes of the source that are not given here.

Consider `c1ccc2c(c1)[Se]C1=NCCCN12` [ISeU3, SeDHPB], for which the “Second-order rate constant k2 exptl” value stood at 18100 M⁻¹ s⁻¹ in data set [1], 107000 M⁻¹ s⁻¹ in data set [2], 1.16e+06 M⁻¹ s⁻¹ in data set [3] and 194000 M⁻¹ s⁻¹ in data set [6]. Also, the “Brønsted basicity pKaH(H2O)” value in data set [4] is given as >11 ^c). For the same compound, in data set [5], the “Nucleophile-specific sensitivity parameter sN” value came out at 0.66. Further, the “Nucleophilicity parameter N” value in data set [5] came out at 15.16. For the same compound, the “Lewis basicity LB” value in data set [7] stood at 15.54.
Regarding `c1ccc2c(c1)OC1=NCCCN12` [IU3, ODHPB], the “Second-order rate constant k2 exptl” value in data set [1] worked out at 1200 M⁻¹ s⁻¹; in data set [2], 7930 M⁻¹ s⁻¹; in data set [3], 129000 M⁻¹ s⁻¹; in data set [6] it was 27900 M⁻¹ s⁻¹. The “Brønsted basicity pKaH(H2O)” value in data set [4] was 8.8 ^c). The “Nucleophile-specific sensitivity parameter sN” value in data set [5] amounted to 0.69. Also, the “Nucleophilicity parameter N” value in data set [5] turned out to be 13.31. Further, the “Lewis basicity LB” value in data set [7] was 13.66.

These data come from publication PMC12643354, “From Oxygen to Tellurium: The Impact of the Chalcogen on Nucleophilicities and Basicities of Isochalcogenourea Catalysts” (Angewandte Chemie (International Ed. in English), 2025).
